The values below come from BindingDB's records for patent WO2022079616 (NOVARTIS AG, 2022).

Assay [1] concerns the target T1, Phosphatidylinositol 4-kinase (Cryptosporidium parvum (strain Iowa II), UniProt Q5CVD3).
T1 sequence (Q5CVD3 whole entry): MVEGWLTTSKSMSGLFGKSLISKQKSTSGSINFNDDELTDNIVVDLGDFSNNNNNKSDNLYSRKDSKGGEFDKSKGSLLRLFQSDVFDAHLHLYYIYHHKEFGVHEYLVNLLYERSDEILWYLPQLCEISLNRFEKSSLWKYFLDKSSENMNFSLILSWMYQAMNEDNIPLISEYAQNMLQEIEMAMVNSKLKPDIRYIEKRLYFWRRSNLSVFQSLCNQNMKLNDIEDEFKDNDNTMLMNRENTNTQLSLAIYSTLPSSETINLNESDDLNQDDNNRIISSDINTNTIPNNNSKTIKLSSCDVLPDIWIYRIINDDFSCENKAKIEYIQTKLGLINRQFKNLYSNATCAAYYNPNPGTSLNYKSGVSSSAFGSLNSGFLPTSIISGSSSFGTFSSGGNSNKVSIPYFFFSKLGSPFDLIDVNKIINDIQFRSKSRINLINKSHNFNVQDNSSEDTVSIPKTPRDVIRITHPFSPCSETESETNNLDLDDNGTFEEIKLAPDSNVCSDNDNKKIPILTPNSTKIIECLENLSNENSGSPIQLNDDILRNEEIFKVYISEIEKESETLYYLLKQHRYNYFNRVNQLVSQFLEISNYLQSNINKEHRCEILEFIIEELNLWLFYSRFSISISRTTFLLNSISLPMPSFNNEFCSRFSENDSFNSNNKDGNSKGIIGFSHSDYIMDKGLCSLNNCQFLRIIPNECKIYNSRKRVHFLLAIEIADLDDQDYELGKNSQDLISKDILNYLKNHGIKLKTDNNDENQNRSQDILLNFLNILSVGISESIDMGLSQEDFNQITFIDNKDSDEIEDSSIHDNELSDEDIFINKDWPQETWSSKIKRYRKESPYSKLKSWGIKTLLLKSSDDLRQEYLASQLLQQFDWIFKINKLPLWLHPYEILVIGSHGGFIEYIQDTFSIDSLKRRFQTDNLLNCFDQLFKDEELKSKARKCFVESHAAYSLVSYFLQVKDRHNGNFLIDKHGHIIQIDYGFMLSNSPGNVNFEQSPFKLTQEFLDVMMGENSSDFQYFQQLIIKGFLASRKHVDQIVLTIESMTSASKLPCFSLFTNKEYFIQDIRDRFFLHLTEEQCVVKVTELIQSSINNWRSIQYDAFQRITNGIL
Briefly: PI(4)K enzymatic Assay. An excerpt:
Baculovirus expression and purification of C. parvum phosphatidylinositol 4-kinase: The full-length coding sequence of C. parvum PI(4)K (cgd8_4500, 1114 amino acids) was codon-optimized for baculovirus expression, synthesized and cloned into pFastBac-HTb (Invitrogen 10584-027) in frame with the amino-terminal polyhistidine tag using the BamHI and HindIII restriction sites. Recombinant pFastBacHTb-CpPI(4)K bacmid clones were generated by site-specific transposition in E. coli DH10Bac (Invitrogen 10361-012). The bacmid sequence was confirmed by direct DNA sequencing to confirm a lack of mutations across the whole gene. The subsequent steps for bacmid isolation, transfection and selection of the recombinant viruses were performed according to the manufacturer s protocol (Bac-to-Bac system # 10359, Invitrogen).SF9 cells, cultured in SF-900 III serum-free medium, were transfected with recombinant baculovirus at 1/200 (v/v) and incubated at 27 °C for 72^h. The pellets were collected after centrifugation and re-suspended in cell lysis buffer (20^mM Tris-HCl, pH^7.5, 300^mM NaCl, 1mM DTT, 20mM imidazole, 0.01% Triton X-100 and 1×^complete protease inhibitor cocktail without EDTA (Roche Diagnostics 04693116001)). The cell suspension was lysed by sonication and the clarified supernatant was loaded onto a 1^ml HisTrap affinity column (GE Healthcare) pre-equilibrated with buffer A (20^mM Tris-HCl, pH^7.5, 300^mM NaCl, 1mM DTT, 20mM Imidazole, and 1×^complete protease inhibitor cocktail without EDTA). The column was washed with buffer B (buffer A containing 45 mM imidazole) and the bound protein of interest was eluted with buffer C (buffer A with 90^mM imidazole). The fractions containing CpPI(4)K were pooled, concentrated using Amicon Ultra-15 and purified by a gel-filtration column (Hi-Load 26/60 Superdex 200, GE Healthcare) equilibrated with 20^mM Tris, pH^7.5, 300^mM NaCl, 1^mM DTT and 1×^protease inhibitor cocktail without EDTA. The concentrations of the purified protein (Mw 132.39 kda) was determined by using the protein molar extinction coefficient (ε280^nm = 133,810^M−1^cm−1). Aliquots were flash frozen in liquid nitrogen and immediately stored at −80 °C.PI(4)K enzymatic Assay: The CpPI(4)K enzymatic assay was performed as described earlier with a some modifications (McNamara et al., 2013). Briefly, L-α-phosphatidylinositol (Avanti Polar Lipid 840046), dissolved in 3% n-octylglucoside (Roche Diagnostics 10634425001), was used as the lipid substrate for the PI(4)K activity assay. CpPI(4)K was assayed using Transcreener ADP2 FP detection kit (BellBrook 3010) in a black, solid 384-well plate (Corning 3575). The final assay volume was 10^μl and contained 3^nM of the respective CpPI(4)K construct in 10^mM Tris, pH^7.5, 1^mM DTT, 3^μM ATP, 5^mM Mn2+, 0.05% Triton X-100 and 10^μM phosphatidylinositol/octylglucoside. The enzyme reaction was performed for 50 minutes at room temperature and was stopped by adding 10^μl of detection mix containing 1×^stop buffer (50mM HEPES, pH7.5, 400mM NaCl, 20mM EDTA, and 0.02% Brij-35), 2^nM AMP Alexa Fluor 633 tracer, and 20^μg^ml−1 ADP antibody. Fluorescence polarization measurements were performed on the Infinite M1000 plate reader (Tecan) with λex = 635^nm and λem = 680^nm (20-nm bandwidth). IC50 values were calculated using Graphpad Prism software.

The target of assay [2] is PI3K/PI4K catalytic domain-containing protein (Cryptosporidium hominis, UniProt A0A0S4TH36).
PI3K/PI4K catalytic domain-containing protein, sequence (A0A0S4TH36 whole entry, the tested form may be a part): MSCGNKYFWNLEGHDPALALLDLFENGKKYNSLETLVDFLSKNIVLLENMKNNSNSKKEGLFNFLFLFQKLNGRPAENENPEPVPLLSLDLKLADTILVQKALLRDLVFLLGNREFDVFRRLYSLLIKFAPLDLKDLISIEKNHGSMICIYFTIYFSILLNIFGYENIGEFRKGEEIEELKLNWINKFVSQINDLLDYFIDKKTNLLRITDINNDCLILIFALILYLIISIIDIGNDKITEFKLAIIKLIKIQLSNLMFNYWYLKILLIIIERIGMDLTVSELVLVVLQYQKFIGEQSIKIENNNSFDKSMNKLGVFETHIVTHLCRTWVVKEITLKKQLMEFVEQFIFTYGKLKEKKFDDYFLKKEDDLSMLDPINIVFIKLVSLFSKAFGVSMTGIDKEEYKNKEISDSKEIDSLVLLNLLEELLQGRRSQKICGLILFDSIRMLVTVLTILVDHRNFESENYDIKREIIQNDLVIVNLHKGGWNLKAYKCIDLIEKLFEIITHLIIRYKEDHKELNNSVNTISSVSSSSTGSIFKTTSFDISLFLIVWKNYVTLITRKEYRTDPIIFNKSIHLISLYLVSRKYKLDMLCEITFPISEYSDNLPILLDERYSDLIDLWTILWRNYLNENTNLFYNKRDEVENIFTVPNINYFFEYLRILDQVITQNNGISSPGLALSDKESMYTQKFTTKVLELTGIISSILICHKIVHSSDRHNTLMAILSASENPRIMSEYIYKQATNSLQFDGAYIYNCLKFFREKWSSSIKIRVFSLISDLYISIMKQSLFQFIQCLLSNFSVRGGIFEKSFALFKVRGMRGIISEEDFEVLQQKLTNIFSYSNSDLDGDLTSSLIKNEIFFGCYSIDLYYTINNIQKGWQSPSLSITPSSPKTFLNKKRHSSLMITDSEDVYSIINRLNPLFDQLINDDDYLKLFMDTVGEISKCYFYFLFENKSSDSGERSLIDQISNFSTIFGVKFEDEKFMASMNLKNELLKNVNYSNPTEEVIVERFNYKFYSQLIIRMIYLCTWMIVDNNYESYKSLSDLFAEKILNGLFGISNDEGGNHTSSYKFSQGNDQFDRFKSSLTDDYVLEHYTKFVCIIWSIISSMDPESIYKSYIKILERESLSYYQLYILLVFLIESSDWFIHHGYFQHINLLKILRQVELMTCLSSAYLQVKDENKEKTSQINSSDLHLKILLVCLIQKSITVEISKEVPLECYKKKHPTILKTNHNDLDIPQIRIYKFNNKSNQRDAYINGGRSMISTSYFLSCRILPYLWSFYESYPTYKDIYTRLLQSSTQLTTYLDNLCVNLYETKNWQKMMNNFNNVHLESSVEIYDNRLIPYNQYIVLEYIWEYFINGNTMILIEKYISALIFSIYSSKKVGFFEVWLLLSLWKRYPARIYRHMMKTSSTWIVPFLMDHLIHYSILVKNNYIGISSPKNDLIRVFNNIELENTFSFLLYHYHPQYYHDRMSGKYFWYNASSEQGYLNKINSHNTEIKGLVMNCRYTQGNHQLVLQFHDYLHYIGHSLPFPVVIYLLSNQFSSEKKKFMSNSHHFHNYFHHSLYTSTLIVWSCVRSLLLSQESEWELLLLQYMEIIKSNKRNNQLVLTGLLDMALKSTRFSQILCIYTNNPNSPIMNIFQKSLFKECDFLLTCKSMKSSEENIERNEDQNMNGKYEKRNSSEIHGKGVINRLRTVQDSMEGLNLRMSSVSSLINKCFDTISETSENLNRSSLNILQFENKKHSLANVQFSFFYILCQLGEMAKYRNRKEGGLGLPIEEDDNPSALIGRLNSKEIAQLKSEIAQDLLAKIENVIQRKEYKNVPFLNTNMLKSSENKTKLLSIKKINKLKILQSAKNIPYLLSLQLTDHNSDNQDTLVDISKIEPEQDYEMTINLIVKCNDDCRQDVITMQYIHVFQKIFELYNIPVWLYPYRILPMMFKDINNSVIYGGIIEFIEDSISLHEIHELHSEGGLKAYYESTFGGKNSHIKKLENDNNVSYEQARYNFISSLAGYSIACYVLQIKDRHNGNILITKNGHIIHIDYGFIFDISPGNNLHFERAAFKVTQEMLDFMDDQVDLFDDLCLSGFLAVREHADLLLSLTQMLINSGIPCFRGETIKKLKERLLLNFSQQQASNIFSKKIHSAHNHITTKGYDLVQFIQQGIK

`CCOC(=O)OC(C)OC(=O)c1cc(N(C)C(=O)c2ccn3ncc(-c4ccc(C(N)=O)cc4)c3c2)ccc1Cl` (racemic) [WO2022079616, Example 1.14]: the IC50 in assay [1] is 550 nM; in assay [2], above 1000 nM.
In turn, `CN(C(=O)c1ccn2ncc(-c3ccc(C(N)=O)cc3)c2c1)c1ccc(Cl)c(C(=O)OCC2CCCO2)c1` (racemic) [WO2022079616, Example 1.15] yielded a 50% inhibitory concentration (IC50) in assay [1] below 100 nM.
`CN(C(=O)c1ccn2ncc(-c3ccc(C(N)=O)cc3)c2c1)c1ccc(Cl)c(C(=O)OC(C)(C)C)c1` [WO2022079616, Example 1.02] registered an IC50 in assay [1] below 100 nM.
The same measure, in the same setting: the value for `CN(C(=O)c1ccn2ncc(-c3ccc(C(N)=O)cc3)c2c1)c1ccc(Cl)c(C(=O)O)c1` [WO2022079616, Example 1.03] was below 100 nM; that for `CSCCOC(=O)c1cc(N(C)C(=O)c2ccn3ncc(-c4ccc(C(N)=O)cc4)c3c2)ccc1Cl` [WO2022079616, Example 1.04] was below 100 nM.
Same read-out and setting: the value for `CC(C)COC(=O)c1cc(N(C)C(=O)c2ccn3ncc(-c4ccc(C(N)=O)cc4)c3c2)ccc1Cl` [WO2022079616, Example 1.05] was below 100 nM; that for `COC(=O)COC(=O)c1cc(N(C)C(=O)c2ccn3ncc(-c4ccc(C(N)=O)cc4)c3c2)ccc1Cl` [WO2022079616, Example 1.06] was below 100 nM.
Take `CN(C(=O)c1ccn2ncc(-c3ccc(C(N)=O)cc3)c2c1)c1ccc(Cl)c(C(=O)OCCN2CCOCC2)c1` [WO2022079616, Example 1.08]: the 50% inhibitory concentration (IC50) in assay [1] is below 100 nM; in assay [2], above 1000 nM.
For the compound `CCOC(=O)c1cc(N(C)C(=O)c2ccn3ncc(-c4ccc(C(N)=O)cc4)c3c2)ccc1Cl` [WO2022079616, Example 1.09], the 50% inhibitory concentration (IC50) in assay [1] was below 100 nM.
Still for that read-out and setting: the value for `CN(C(=O)c1ccn2ncc(-c3ccc(C(N)=O)cc3)c2c1)c1ccc(Cl)c(C(=O)OCC(F)(F)F)c1` [WO2022079616, Example 1.10] was below 100 nM; that for `COCCOC(=O)c1cc(N(C)C(=O)c2ccn3ncc(-c4ccc(C(N)=O)cc4)c3c2)ccc1Cl` [WO2022079616, Example 1.11] was below 100 nM.
For the compound `CN(C)C(=O)COC(=O)c1cc(N(C)C(=O)c2ccn3ncc(-c4ccc(C(N)=O)cc4)c3c2)ccc1Cl` [WO2022079616, Example 1.12], the IC50 in assay [1] was below 100 nM.
Take `CC(C)OC(=O)c1cc(N(C)C(=O)c2ccn3ncc(-c4ccc(C(N)=O)cc4)c3c2)ccc1Cl` [WO2022079616, Example 1.13]: the IC50 in assay [1] was below 100 nM.
As for `CNC(=O)c1ccc(-c2cnn3ccc(C(=O)N(C)c4ccc(Cl)c(C(=O)OC)c4)cc23)cc1` [WO2022079616, Example 1.16], the figures for the IC50 in assay [1] and in assay [2] were below 100 nM and 550 nM, respectively.
In assay [1], `CNC(=O)c1ccc(-c2cnn3ccc(C(=O)N(C)c4ccc(Cl)c(C(=O)OC(C)(C)C)c4)cc23)cc1` [WO2022079616, Example 1.17] gave an IC50 below 100 nM.
Regarding `CNC(=O)c1ccc(-c2cnn3ccc(C(=O)N(C)c4ccc(Cl)c(C(=O)O)c4)cc23)cc1` [WO2022079616, Example 1.18], the IC50 in assay [1] was below 100 nM; in assay [2], 550 nM.
`CNC(=O)c1ccc(-c2cnn3ccc(C(=O)N(C)c4ccc(Cl)c(C(=O)OCCN5CCOCC5)c4)cc23)cc1` [WO2022079616, Example 1.19]: the IC50 was below 100 nM in assay [1] and 550 nM in assay [2].
For `COC(=O)c1cc(N(C)C(=O)c2ccn3ncc(-c4ccc(C(N)=O)cc4C)c3c2)ccc1Cl` [WO2022079616, Example 1.21] the same measures were below 100 nM and above 1000 nM.
With `CNC(=O)c1ccc(-c2cnn3ccc(C(=O)N(C)c4ccc(Cl)c(C(=O)OC)c4)cc23)cc1C` [WO2022079616, Example 1.22], the half-maximal inhibitory concentration (IC50) in assay [1] is 550 nM; in assay [2] it was above 1000 nM.
As for `COC(=O)c1cc(NC(=O)c2ccn3ncc(-c4ccc(C(N)=O)cc4)c3c2)ccc1Cl` [WO2022079616, Example 1.23], the IC50 in assay [1] and in assay [2] was above 1000 nM in each case.
As to `CNC(=O)c1ccc(-c2cnn3ccc(C(=O)Nc4ccc(Cl)c(C(=O)OC)c4)cc23)cc1` [WO2022079616, Example 1.24], the IC50 in assay [1] and in assay [2] was above 1000 nM in each case.
With `COC(=O)c1cc(N(C)C(=O)c2ccn3ncc(-c4ccc(C(N)=O)cc4)c3c2)ccc1OC(F)(F)F` [WO2022079616, Example 1.25], the 50% inhibitory concentration (IC50) in assay [1] was below 100 nM; in assay [2] it was above 1000 nM.
In turn, `CNC(=O)c1ccc(-c2cnn3ccc(C(=O)N(C)c4ccc(OC(F)(F)F)c(C(=O)OC)c4)cc23)cc1` [WO2022079616, Example 1.26] displayed an IC50 in assay [1] below 100 nM.
With `COC(=O)c1cc(N(C)C(=O)c2ccn3ncc(-c4ccc(C(N)=O)cc4)c3c2)ccc1C#N` [WO2022079616, Example 1.27], the IC50 in assay [1] was 550 nM; in assay [2], above 1000 nM.
Turning to `CNC(=O)c1ccc(-c2cnc3cnc(C(=O)N(C)c4ccc(Cl)c(C(=O)OC)c4)cn23)cc1` [WO2022079616, Example 2.1], the figures for the IC50 in assay [1] and in assay [2] were below 100 nM and above 1000 nM, respectively.
Take `CNC(=O)c1ccc(-c2cnn3cnc(C(=O)N(C)c4ccc(Cl)c(C(=O)OC)c4)cc23)cc1` [WO2022079616, Example 3.1]: the half-inhibitory concentration (IC50) in assay [1] was below 100 nM; in assay [2], above 1000 nM.
The like results for `COC(=O)c1cc(Cl)ccc1N(C)C(=O)c1ccn2ncc(-c3ccc(C(N)=O)cc3)c2c1` [WO2022079616, Example 4.1] were, in that order, below 100 nM and 550 nM.

In general, IC50 refers to the point on the concentration scale where inhibition reaches its midpoint. A lower IC50 goes with inhibition by little substance.
